Ends that are not written are not given here.
What was measured:
[1] = system: zebrafish embryo intersegmental vessel; assay: Zebrafish embryo intersegmental vessel angiogenesis; assay type: in vivo; details: 25 µmol/L; 24 h; 28 °C; fluorescence microscope; vs control; n = 3
Method: After a certain period, healthy, sexually mature female and male zebrafish were mated in a 1:1 ratio. After 24 h, the fertilized eggs were removed, disinfected, and washed, and then placed in embryo culture water and cultured in an incubator at 28 °C for 24 h. The fertilized eggs were washed with chain enzyme protease E solution (1 mg/mL) to remove the egg membrane on the surface and placed under a microscope to observe and select the normally developing zebrafish embryos, and then placed into a 24-well plate. […] The control group was added with the same volume of embryo culture water, and then placed in an incubator at 28 °C for 24 h. Zebrafish embryos were randomly removed from each group and observed under a fluorescence microscope. The total length of zebrafish internode vessels was calculated and counted.

[2] = system: intracranial U87-mCherry-luc glioma; assay: In vivo anti-glioma study (bioluminescence); parameters: species or system nude mice; details: 20 mg/kg/day i.v. (tail vein), 11 days; days 4, 7, 11, 14; n = 5
Method: The orthotopic U87-mCherry-luc glioma-bearing nude mice were randomly assigned to 6 groups (n = 5) according to the bioluminescence intensity of glioma measured on day 4. […] The bioluminescence intensity was measured on days 4, 7, 11, and 14, respectively. Nude mice were weighed daily. On day 15, the mice were sacrificed, and the glioma-bearing brains were harvested. The brain tissues were fixed with 4.0% paraformaldehyde, embedded in paraffin, and cut into slices. The TUNEL staining and CD31 immunohistochemical staining were conducted according to standard histological procedures.

[3] = system: HUVECs; assay: Annexin V-FITC/PI staining, flow cytometry (apoptosis); assay type: cell-based, human; details: 320 μmol/L, 24 h; for induction of apoptosis: Hoechst and Annexin V-FITC/PI staining; for total apoptotic rate (Q1-UR and Q1-LR): mean ± SD, n = 3, control (7.17 ± 1.42)%
Method: HUVECs were seeded into 6-well culture plates (3 × 10^5 cells/well). […] After discarding the supernatant and washing with cold PBS, the cells were fixed in 4% paraformaldehyde and stained with Hoechst 33,258 for 10 min. Then, the cells were washed with cold PBS and observed using an inverted fluorescence microscope. HUVECs were treated with different peptides (the methods were the same as the Hoechst staining). After 24 h, cells were collected by trypsin digestion and washed with PBS. Annexin V-FITC/PI staining was conducted according to the manufacturer’s instructions for the Apoptosis Detection Kit. Briefly, 195 μL of Annexin V-FITC/PI dilution buffer was added to resuspend the cells. Then, 5 μL of Annexin V-FITC and 10 μL of PI staining solutions were added and gently mixed with the cells. After incubation at room temperature in the dark for 10 min, the apoptotic cells were detected by flow cytometry.

[4] = system: NRP-1; details: for inhibition of binding of VEGF-A165 and NRP-1: peptide 1000 nmol/L
Method: The whole operation was conducted on a Biacore S200 instrument. The recombinant VEGFR-2 or NRP-1 proteins were firstly immobilized on a CM5 chip by an amine-coupling reaction. VEGF-A165 ligands with gradient concentrations in the absence or presence of different peptides were then flowed over the CM5 chip. The binding of VEGF-A165 ligands to the immobilized recombinant VEGFR-2 or NRP-1 proteins led to an increase of the refractive index on the surface of the chip, which could be converted into the fluctuation of electrical signals in the response (RU).
The CM5 sensor chip was obtained from GE Healthcare Life Sciences (Uppsala, Sweden). Purified recombinant human VEGFR-2 and NRP-1 receptor proteins were purchased from R&D Systems (Minneapolis, MN, USA).
The SPR assay was performed using the Biacore S200 instrument (GE Healthcare, Uppsala, Sweden). Firstly, the CM5 sensor chip was activated with EDC/NHS. Then, the recombinant VEGFR-2 and NRP-1 proteins were immobilized on the surface of the sensor chip according to the operating instructions of amine coupling. VEGF-A165 was diluted to 8, 4, 2, 1, and 0.5 nmol/L in different concentrations of peptide solution dissolved by HBS-EP buffer (0, 0.016, 0.064, 0.256, and 1 μmol/L, respectively). The Kinetics/Affinity program was selected, and the automatic continuous injection program was set. The injection flow rate was 30 μL/min, the injection time was 120 s, and the dissociation time was 220 s. At the same time, zero-concentration injection wells and 0.5 nmol/L repeat-concentration injection wells of VEGF-A165 were set. At the end of each injection, the channels were flushed with glycine-HCl solution for 30 s until response values were returned to baseline.

[5] = system: VEGFR-2; parameters: method as in 2 sources, ref 30 = [30]; PMID 33209022; doi:10.2147/IJN.S270208; 30. Lu L. Chen H. Wang L. Zhao L. Cheng Y. Wang A. Wang F. Zhang X. A Dual Receptor Targeting- and BBB Penetrating- Peptide Functionalized Polyethyleneimine Nanocomplex for Secretory Endostatin Gene D ||| ref 19-22 = [19]; PMID 10747021; doi:10.1093/emboj/19.7.1525; 19. Binétruy-Tournaire R. Demangel C. Malavaud B. Vassy R. Rouyre S. Kraemer M. Plouët J. Derbin C. Perret G. Mazié J.C. Identification of a peptide blocking vascular endothelial growth factor (VEGF)- || [20]; PMID 16959272; doi:10.1016/j.lfs.2006.08.005; 20. Starzec A. Vassy R. Martin A. Lecouvey M. Di Benedetto M. Crépin M. Perret G.Y. Antiangiogenic and antitumor activities of peptide inhibiting the vascular endothelial growth factor binding to neur || [21]; PMID 17983687; doi:10.1016/j.peptides.2007.09.013; 21. Starzec A. Ladam P. Vassy R. Badache S. Bouchemal N. Navaza A. du Penhoat C.H. Perret G.Y. Structure-function analysis of the antiangiogenic ATWLPPR peptide inhibiting VEGF (165) binding to neurop || [22]; PMID 27693752; doi:10.1016/j.jconrel.2016.09.035; 22. Ying M. Shen Q. Zhan C. Wei X. Gao J. Xie C. Yao B. Lu W. A stabilized peptide ligand for multifunctional glioma targeted drug delivery J. Control. Release 2016 243 86 98 10.1016/j.jconrel.2016.09; details: cited from earlier work
From the text: (§1) ATWLPPR (AT7), which was identified by a mutated phage lib ... || Intracranial delivery of therapeutic agents is primarily hindered by the BBB [24]. The intercellular tight junction caused by the BBB restricts the passive diffusion of almost all large-molecule and more than 98% of small-molecule drugs from peripheral blood circulation to the brain tissue.

[6] = system: NRP-1; parameters: method as in 2 sources, ref 30 = [30]; PMID 33209022; doi:10.2147/IJN.S270208; 30. Lu L. Chen H. Wang L. Zhao L. Cheng Y. Wang A. Wang F. Zhang X. A Dual Receptor Targeting- and BBB Penetrating- Peptide Functionalized Polyethyleneimine Nanocomplex for Secretory Endostatin Gene D ||| ref 19-22 = [19]; PMID 10747021; doi:10.1093/emboj/19.7.1525; 19. Binétruy-Tournaire R. Demangel C. Malavaud B. Vassy R. Rouyre S. Kraemer M. Plouët J. Derbin C. Perret G. Mazié J.C. Identification of a peptide blocking vascular endothelial growth factor (VEGF)- || [20]; PMID 16959272; doi:10.1016/j.lfs.2006.08.005; 20. Starzec A. Vassy R. Martin A. Lecouvey M. Di Benedetto M. Crépin M. Perret G.Y. Antiangiogenic and antitumor activities of peptide inhibiting the vascular endothelial growth factor binding to neur || [21]; PMID 17983687; doi:10.1016/j.peptides.2007.09.013; 21. Starzec A. Ladam P. Vassy R. Badache S. Bouchemal N. Navaza A. du Penhoat C.H. Perret G.Y. Structure-function analysis of the antiangiogenic ATWLPPR peptide inhibiting VEGF (165) binding to neurop || [22]; PMID 27693752; doi:10.1016/j.jconrel.2016.09.035; 22. Ying M. Shen Q. Zhan C. Wei X. Gao J. Xie C. Yao B. Lu W. A stabilized peptide ligand for multifunctional glioma targeted drug delivery J. Control. Release 2016 243 86 98 10.1016/j.jconrel.2016.09; details: cited from earlier work
From the text: as §1

[7] = VEGF-A165 0.5-8 nmol/L, CM5 chip, HBS-EP

CC(C)C[C@H](NC(=O)[C@H](Cc1c[nH]c2ccccc12)NC(=O)[C@@H](NC(=O)[C@H](C)NC(=O)[C@H](CS)NC(=O)[C@H](CCCNC(=N)N)NC(=O)[C@H](CCCNC(=N)N)NC(=O)[C@H](CCCNC(=N)N)NC(=O)[C@H](CCC(N)=O)NC(=O)[C@H](CCCNC(=N)N)NC(=O)[C@H](CCCNC(=N)N)NC(=O)[C@H](CCCCN)NC(=O)[C@H](CCCCN)NC(=O)[C@@H](N)CCCNC(=N)N)[C@@H](C)O)C(=O)N1CCC[C@H]1C(=O)N1CCC[C@H]1C(=O)N[C@@H](CCCNC(=N)N)C(=O)O [TAT-AT7]
intersegmental vascular growth [1]: significantly inhibit the generation of the zebrafish embryo intersegmental vessel
glioma growth (bioluminescence) [2]: significantly suppressed glioma growth on days 11 and 14
induction of apoptosis [3]: strongly induced HUVECs’ apoptosis
total apoptotic rate (Q1-UR and Q1-LR) [3]: 29.56 ± 3.07%
inhibition of VEGF-A165 binding to NRP-1 relative to VEGFR-2 ([4]; SPR, NRP-1 compared with VEGFR-2): stronger inhibitory effect on the binding of VEGF-A165 to NRP-1
inhibitory effect on VEGF-A165/NRP-1 binding, comparison between peptides [4, 7]: much higher than that of AT7 and TAT
binding curve of VEGF-A165 and NRP-1 ([4]; peptide 256 nmol/L, VEGF-A165 0.5-8 nmol/L, CM5 chip, HBS-EP): tended to be a zero baseline
inhibition of binding of VEGF-A165 and NRP-1 [4, 7]: completely inhibited the binding of VEGF-A165 and NRP-1
affinity to VEGFR-2 ([5]; compared with TAT or AT7 alone): higher affinity to VEGFR-2 and NRP-1
affinity to NRP-1 ([6]; compared with TAT or AT7 alone): higher affinity to VEGFR-2 and NRP-1

ATWLPPR [AT7, ATWLPPR]
intersegmental vascular growth [1]: no obvious effect on intersegmental vascular growth
glioma growth (bioluminescence) [2]: no significant difference compared to the control group
induction of apoptosis [3]: no obvious effect of promoting apoptosis
total apoptotic rate (Q1-UR and Q1-LR) [3]: 7.80 ± 1.50%
inhibition of binding of VEGF-A165 and NRP-1 [4, 7]: displayed inhibitory effects on the binding of VEGF-A165 and NRP-1, but it did not completely inhibit the binding
binding to VEGFR-2 [5]: able to bind to VEGFR-2 and NRP-1
binding to NRP-1 [6]: able to bind to VEGFR-2 and NRP-1

Reference: paper PMC10218704, “A Novel Blood–Brain Barrier-Penetrating and Vascular-Targeting Chimeric Peptide Inhibits Glioma Angiogenesis” (International Journal of Molecular Sciences, 2023)
